Columns and labels:
Assay type in all cases: in vivo, healthy adult subjects
[1] = tested on: cortisol and an adrenal panel of intermediates (DHA, 17-hydroxypregnenolone, 17-hydroxyprogesterone); test: Phase 1 single ascending dose study: pharmacodynamics (plasma cortisol and adrenal panel of intermediates)
Protocol: This was a Phase 1, single-blind, active-controlled, single ascending dose study to compare the PD effects of the investigational drug AMZ002 with those of H.P. Acthar Gel and Cortrosyn in healthy adult subjects. AMZ002 is a sterile solution for IM injection, formulated to contain 0.5 mg/mL ACTH having the sequence […] Phe, 50 mg/mL dextrose, 10 mg/mL sodium carboxymethylcellulose, and 5 mg/mL phenol (pH 6.4). The concentration of 0.5 mg/mL was chosen to reduce possible errors resulting from the preparation of small dose volumes (e.g., less than 0.4 ml).
The study consisted of 8 cohorts, with 8 subjects per cohort (each a single dose): Cortrosyn 0.25 mg; H.P. Acthar Gel 25 U; or, in an ascending dose fashion, AMZ002 0.15, 0.20, 0.25, 0.30, 0.50, or 0.75 mg. The investigational product (AMZ002) and active comparators (Cortrosyn and H.P. Acthar Gel) were administered via intramuscular (IM) injection to the upper arm. The dose of Cortrosyn (0.25 mg by IM administration), the active control, was intended to produce maximal adrenal stimulation. This is the standard dose for adults and children ≥2 years of age recommended in the 2015 Endocrine Society Clinical Practice Guidelines for diagnostic testing of adrenal insufficiency (same dose whether Cortrosyn is administered intravenously or IM). […] Since 25 U of natural ACTH was expected to elicit […] adrenal response, it was considered the most sensitive dose to determine a pharmacodynamically equivalent dose of AMZ002 in this study. Therefore, this study included a cohort of subjects who received a single dose of 25 U H.P. Acthar Gel (representing the target PD for the investigational drug product in this study).
On Day-1, a single standard dose of dexamethasone (1 mg) was administered orally at approximately midnight (8 hours prior to study drug administration the following day) to suppress endogenous adrenocorticotropic hormone (ACTH) production and remove this as a confounding variable in the measurements. […]
For each PD (pharmacodynamics) analyte (plasma cortisol and an adrenal panel of intermediates [DHA, 17-hydroxypregnenolone, and 17-hydroxyprogesterone]), the following parameters were calculated with the actual time points using a noncompartmental method as appropriate: • Maximum observed PD measurement (Emax); • Time to reach maximum observed PD measurement (TEmax); and • Area under the PD effect-time curve from time 0 to the last quantifiable PD measurement (AUEC0−t).
The PD parameters using baseline-corrected PD measurements were calculated similarly, if applicable. […] The following parameters were also calculated using baseline-corrected PD measurements: • Area under the PD effect-time curve that was above baseline (AUECabove B); and • Total time that response was≥baseline (Timeabove B). […]

[2] = Phase 1 single ascending dose study: plasma pharmacokinetics of syn-ACTH
Protocol: (§1) Subjects who met all of the inclusion criteria and none of the exclusion criteria were enrolled in the study. Safety and tolerability were evaluated throughout the study, including all adverse events (AEs); physical examination findings; vital sign measurements; 12-lead electrocardiogram (ECG) findings; standard clinical laboratory measurements (eg, serum chemistry, hematology, and urinalysis); and injection site evaluations. Immunogenicity, as measured by antidrug antibodies (ADA) were evaluated. PD effects were assessed based on levels of cortisol and an adrenal panel of intermediates (dehydroepiandrosterone [DHA], 17-hydroxypregnenolone, and 17 hydroxyprogesterone). Blood samples for measurement of syn-ACTH concentrations were also collected (AMZ002 cohorts only).
Blood samples were collected prior to dosing on Day 1; at 5, 15, 30, and 45 minutes postdose; and at 1, 1.5, 2, 2.5, 3, 4, 5, 6, 8, 10, 12, 24, 30, 36, and 48 hours postdose.
The following plasma PK (pharmacokinetics) parameters of syn-ACTH were calculated from individual syn-ACTH concentration data for each cohort: • Maximum plasma concentration (Cmax) if the maximum value occurred at more than 1 time point, Cmax was defined as the first value; • Time to Cmax (Tmax); • Terminal elimination constant rate (λz); • Terminal elimination half-life (t1/2), calculated as ln(2)/λz; • AUC from time 0 to the last quantifiable plasma concentration (Clast) (AUClast); • AUC from time 0 to infinity (AUCinf);
Proportion of AUCinf due to extrapolation (%)(AUCextr), calculated as 100×(Clast/λz)/AUCinf; • Apparent clearance (CL/F); calculated as Dose/AUCinf; and • Apparent volume of distribution (Vz/F), calculated as Dose/[λz×AUCinf].

[3] = Phase 1 single ascending dose study: safety and tolerability; details: for safety and tolerability: single IM doses 0.15 mg to 0.75 mg
Protocol: as §1
Safety parameters included all AEs; physical examination findings; vital sign measurements; 12-lead ECG findings; standard clinical laboratory measurements (eg, serum chemistry, hematology, and urinalysis); and injection site evaluations.

[4] = Phase 1 single ascending dose study: immunogenicity (antidrug antibodies); details: single IM dose; consistent with that observed for H.P. Acthar Gel
Protocol: as §1
Blood samples for evaluation of immunogenicity as measured by ADA were obtained at the Treatment Visit (Day 1) (predose), prior to discharge (Day 3), the Follow-Up Visit (Day 8 [+2 days])/Early Termination Visit, and subsequent visits for collection of ADA (Day 15 [+2 days] and Day 29 [+2 days]).

Substance: H-SYSMEHFRWGKPVGKKRRPVKVYPNGAEDELAEAFPLEF-OH [AMZ002]
- cortisol response compared to 25 U H.P. Acthar Gel, highest levels ([1]; highest dose levels within 0.15 to 0.75 mg, single IM dose, FIG. 1): slightly greater and more sustained effects
- cortisol response compared to 25 U H.P. Acthar Gel, lowest levels ([1]; lowest dose levels within 0.15 to 0.75 mg, single IM dose, FIG. 1): maximal effect that is less sustained
- DHA response, lower levels compared to higher levels ([1]; single IM dose 0.15 to 0.75 mg, FIG. 2): maximal effect that is less sustained
- 17-hydroxypregnenolone response, lower levels compared to higher levels ([1]; single IM dose 0.15 to 0.75 mg, FIG. 3): maximal effect that is less sustained
- half-life ([2]; human, plasma, single IM dose, range across dose cohorts, read-out: mean t½): 0.911 to 2.59 h
- Tmax ([2]; human, plasma, single IM dose, range across dose cohorts, read-out: median Tmax): 0.08 to 2 h
- absorption ([2]; single IM dose): rapidly absorbed
- time to mean peak plasma concentrations after dosing ([2]; single IM dose): ≤ 2 h
- increase of exposure with increase in dose ([2]; single IM dose 0.15 to 0.75 mg): greater than proportional
- deaths, treatment-emergent SAEs, withdrawals due to a TEAE ([3]; single IM doses): no deaths, treatment-emergent serious adverse events (SAEs), or withdrawals due to a treatment emergent adverse event (TEAE)
- severity of TEAEs ([3]; single IM doses): mild or moderate
- safety and tolerability [3]: safe and well tolerated
- safety and tolerability ([3]; listed as ACTH having SEQ ID NO:1): generally safe and well tolerated
- incidence of antibody formation (minimum of 1 positive postdose result) [4]: low

— patent publication US20240033328A1, “ACTH IN THE TREATMENT OF AN ADRENOCORTICOTROPIC HORMONE RESPONSIVE PEDIATRIC DISORDER” (Amzell B.V., priority 2020, published 2024)
